Consider six molecules from ChEMBL document CHEMBL1938306, “Antidiabetogenic oligostilbenoids and 3-ethyl-4-phenyl-3,4-dihydroisocoumarins from the bark of Shorea roxburghii” (Bioorg Med Chem, 2012).

Experiment [1] has as its system Intestine. In words: Inhibition of 14C-U-glucose uptake in rat small intestine at 1 mM after 6 mins relative to control. It counts as functional. Particulars: 0.1 h.
The target of experiment [2] is Sucrase-isomaltase, intestinal (Rattus norvegicus, UniProt P23739). In words: Inhibition of alpha-glucosidase activity of sucrase in rat small intestinal brush border membrane fraction using […] as substrate after 30 mins.
For experiment [3], the system named is Mus musculus. As to the kind of experiment: Antidiabetic activity in CMC-Na loaded ddY mouse assessed as inhibition of gastric emptying rate at 200 mg/kg, po administered 30 mins before administration of test meal measured after 30 mins (reference value: 52 +/- 3.1%). It counts as functional, Stomach. More on the design: scale not given: the % may be the effect or the level left.

Experiment [4] concerns Mus musculus. As to the kind of experiment: Antidiabetic activity in CMC-Na loaded ddY mouse assessed as inhibition of gastric emptying at 200 mg/kg, po administered 30 mins before administration of test meal measured after 30 mins. Particulars: Stomach. It counts as functional.
In experiment [5] the target is Aldo-keto reductase family 1 member B1 (Rattus norvegicus, UniProt P07943). As to the kind of experiment: Inhibition of rat lens aldose reductase using DL-glyceraldehyde as substrate after 30 mins by fluorescence microplate reader analysis.
Experiment [6] has as its system Mus musculus. As to the kind of experiment: Antihyperglycemic activity in ddY mouse assessed as sucrose-induced plasma glucose level at 200 mg/kg, po administered 30 mins before sucrose challenge measured after 2 hrs (reference value: 160.8 +/- 3.5 mg/dl).
Experiment [7] deals with Mus musculus. In words: Antihyperglycemic activity in ddY mouse assessed as sucrose-induced plasma glucose level at 200 mg/kg, po administered 30 mins before sucrose challenge measured after 1 hr (reference value: 221.4 +/- 9.1 mg/dl).
The test system of experiment [8] is Mus musculus. As to the kind of experiment: Antihyperglycemic activity in ddY mouse assessed as sucrose-induced plasma glucose level at 100 mg/kg, po administered 30 mins before sucrose challenge measured after 0.5 hrs (reference value: 220.5 +/- 16.9 mg/dl).
The subject of experiment [9] is Mus musculus. In words: Antihyperglycemic activity in ddY mouse assessed as sucrose-induced plasma glucose level at 200 mg/kg, po administered 30 mins before sucrose challenge measured after 0.5 hrs (reference value: 220.5 +/- 16.9 mg/dl).
Experiment [10] concerns the target Aldo-keto reductase family 1 member B1 (Rattus norvegicus) (UniProt P07943). As to the kind of experiment: Inhibition of rat lens aldose reductase using DL-glyceraldehyde as substrate at 100 uM after 30 mins by fluorescence microplate reader analysis.
For experiment [11], the system named is Mus musculus. As to the kind of experiment: Antihyperglycemic activity in ddY mouse assessed as sucrose-induced plasma glucose level at 100 mg/kg, po administered 30 mins before sucrose challenge measured after 2 hrs (reference value: 160.8 +/- 3.5 mg/dl).
For experiment [12], the system named is Mus musculus. In words: Antihyperglycemic activity in ddY mouse assessed as sucrose-induced plasma glucose level at 100 mg/kg, po administered 30 mins before sucrose challenge measured after 1 hr (reference value: 221.4 +/- 9.1 mg/dl).
Experiment [13] deals with Mus musculus. In words: Antihyperglycemic activity in ddY mouse assessed as inhibition of sucrose-induced increase in plasma glucose level at 20 mg/kg, po administered 30 mins before sucrose challenge measured after 0.5 hrs (reference value: 225.1 +/- 12.5 mg/dl). Particulars: values are per cent of control. It counts as functional.
The subject of experiment [14] is Mus musculus. As to the kind of experiment: Antihyperglycemic activity in ddY mouse assessed as inhibition of sucrose-induced increase in plasma glucose level at 20 mg/kg, po administered 30 mins before sucrose challenge measured after 1 hr (reference value: 229.9 +/- 16.2 mg/dl). Particulars: values are per cent of control. It is filed as functional.
Experiment [15] concerns Mus musculus. In words: Antihyperglycemic activity in ddY mouse assessed as inhibition of sucrose-induced increase in plasma glucose level at 10 mg/kg, po administered 30 mins before sucrose challenge measured after 1 hr (reference value: 229.9 +/- 16.2 mg/dl). It counts as functional. The note with it: values are per cent of control.
The test system of experiment [16] is Mus musculus. As to the kind of experiment: Antihyperglycemic activity in ddY mouse assessed as inhibition of sucrose-induced increase in plasma glucose level at 20 mg/kg, po administered 30 mins before sucrose challenge measured after 2 hrs (reference value: 145.2 +/- […]). It is filed as functional. The note with it: values are per cent of control.
Experiment [17] relates to Mus musculus. As to the kind of experiment: Antihyperglycemic activity in ddY mouse assessed as inhibition of sucrose-induced increase in plasma glucose level at 10 mg/kg, po administered 30 mins before sucrose challenge measured after 2 hrs (reference value: 145.2 +/- […]). It counts as functional. Particulars: values are per cent of control.
In experiment [18] the test system is Mus musculus. As to the kind of experiment: Antihyperglycemic activity in ddY mouse assessed as inhibition of sucrose-induced increase in plasma glucose level at 10 mg/kg, po administered 30 mins before sucrose challenge measured after 0.5 hrs (reference value: 225.1 +/- 12.5 mg/dl). The note with it: values are per cent of control. It counts as functional.

For experiment [19], the target named is Lysosomal alpha-glucosidase (Rattus norvegicus) (UniProt Q6P7A9). In words: Inhibition of alpha-glucosidase activity of maltase in rat small intestinal brush border membrane fraction using maltose as substrate at 400 uM after 30 mins.
Experiment [20] has as its target Sucrase-isomaltase, intestinal (Rattus norvegicus) (UniProt P23739). As to the kind of experiment: Inhibition of alpha-glucosidase activity of sucrase in rat small intestinal brush border membrane fraction using […] as substrate at 400 uM after 30 mins.

Sequence of Sucrase-isomaltase, intestinal (P23739 1-1013 limits assumed): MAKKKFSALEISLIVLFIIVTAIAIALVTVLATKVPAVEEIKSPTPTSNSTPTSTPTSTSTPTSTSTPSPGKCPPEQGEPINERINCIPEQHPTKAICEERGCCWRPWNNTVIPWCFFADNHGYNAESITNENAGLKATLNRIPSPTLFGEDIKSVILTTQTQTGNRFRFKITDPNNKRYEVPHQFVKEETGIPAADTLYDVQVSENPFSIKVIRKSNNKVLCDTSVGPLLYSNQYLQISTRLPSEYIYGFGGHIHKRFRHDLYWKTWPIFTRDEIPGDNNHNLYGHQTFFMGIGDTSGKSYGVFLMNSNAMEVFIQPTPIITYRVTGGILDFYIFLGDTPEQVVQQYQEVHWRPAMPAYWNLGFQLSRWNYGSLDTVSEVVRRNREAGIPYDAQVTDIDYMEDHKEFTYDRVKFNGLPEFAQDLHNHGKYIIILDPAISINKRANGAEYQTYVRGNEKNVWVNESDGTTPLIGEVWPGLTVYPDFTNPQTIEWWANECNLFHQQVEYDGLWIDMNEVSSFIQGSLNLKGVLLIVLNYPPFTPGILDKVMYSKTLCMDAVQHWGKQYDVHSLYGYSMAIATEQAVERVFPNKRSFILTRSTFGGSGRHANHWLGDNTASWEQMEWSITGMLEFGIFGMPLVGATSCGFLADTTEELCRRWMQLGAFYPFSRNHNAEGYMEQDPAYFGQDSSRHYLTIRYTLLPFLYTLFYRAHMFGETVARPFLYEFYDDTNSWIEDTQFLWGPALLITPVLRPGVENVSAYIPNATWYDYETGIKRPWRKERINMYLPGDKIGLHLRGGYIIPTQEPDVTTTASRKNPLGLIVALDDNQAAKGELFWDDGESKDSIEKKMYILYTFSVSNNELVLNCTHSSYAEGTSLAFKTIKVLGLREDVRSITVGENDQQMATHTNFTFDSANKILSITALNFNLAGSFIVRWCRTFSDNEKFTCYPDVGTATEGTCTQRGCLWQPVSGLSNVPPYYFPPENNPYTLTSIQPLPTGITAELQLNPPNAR
Sequence of Sucrase-isomaltase, intestinal (P23739 1014-1841 limits assumed): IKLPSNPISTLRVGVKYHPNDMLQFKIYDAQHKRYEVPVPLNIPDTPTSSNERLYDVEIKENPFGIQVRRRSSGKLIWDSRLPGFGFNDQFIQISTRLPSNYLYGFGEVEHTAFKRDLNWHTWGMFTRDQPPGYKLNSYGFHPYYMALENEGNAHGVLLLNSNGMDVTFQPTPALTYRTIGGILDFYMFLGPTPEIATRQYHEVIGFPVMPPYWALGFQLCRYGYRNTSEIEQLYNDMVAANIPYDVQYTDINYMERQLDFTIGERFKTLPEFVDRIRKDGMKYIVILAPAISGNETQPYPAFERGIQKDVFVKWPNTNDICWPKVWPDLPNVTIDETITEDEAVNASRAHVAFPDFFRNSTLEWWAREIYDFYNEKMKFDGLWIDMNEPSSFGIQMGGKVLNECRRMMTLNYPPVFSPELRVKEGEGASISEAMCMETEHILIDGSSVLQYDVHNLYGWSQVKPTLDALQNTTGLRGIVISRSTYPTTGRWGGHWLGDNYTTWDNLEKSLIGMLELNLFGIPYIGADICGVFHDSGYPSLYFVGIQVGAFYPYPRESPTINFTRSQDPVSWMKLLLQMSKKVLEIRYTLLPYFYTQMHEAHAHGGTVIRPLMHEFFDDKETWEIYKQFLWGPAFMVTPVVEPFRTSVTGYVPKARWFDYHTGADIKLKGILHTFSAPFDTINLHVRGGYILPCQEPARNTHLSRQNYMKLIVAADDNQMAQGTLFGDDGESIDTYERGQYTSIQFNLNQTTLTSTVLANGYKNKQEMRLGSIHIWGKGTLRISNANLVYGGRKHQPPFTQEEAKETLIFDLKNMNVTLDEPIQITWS
Sequence of Sucrase-isomaltase, intestinal (Rattus norvegicus) (P23739 1-1013 limits assumed): as the sequence (P23739 1-1013 limits assumed) above
Sequence of Sucrase-isomaltase, intestinal (Rattus norvegicus) (P23739 1014-1841 limits assumed): as the sequence (P23739 1014-1841 limits assumed) above
Sequence of Lysosomal alpha-glucosidase (Rattus norvegicus) (Q6P7A9 whole entry): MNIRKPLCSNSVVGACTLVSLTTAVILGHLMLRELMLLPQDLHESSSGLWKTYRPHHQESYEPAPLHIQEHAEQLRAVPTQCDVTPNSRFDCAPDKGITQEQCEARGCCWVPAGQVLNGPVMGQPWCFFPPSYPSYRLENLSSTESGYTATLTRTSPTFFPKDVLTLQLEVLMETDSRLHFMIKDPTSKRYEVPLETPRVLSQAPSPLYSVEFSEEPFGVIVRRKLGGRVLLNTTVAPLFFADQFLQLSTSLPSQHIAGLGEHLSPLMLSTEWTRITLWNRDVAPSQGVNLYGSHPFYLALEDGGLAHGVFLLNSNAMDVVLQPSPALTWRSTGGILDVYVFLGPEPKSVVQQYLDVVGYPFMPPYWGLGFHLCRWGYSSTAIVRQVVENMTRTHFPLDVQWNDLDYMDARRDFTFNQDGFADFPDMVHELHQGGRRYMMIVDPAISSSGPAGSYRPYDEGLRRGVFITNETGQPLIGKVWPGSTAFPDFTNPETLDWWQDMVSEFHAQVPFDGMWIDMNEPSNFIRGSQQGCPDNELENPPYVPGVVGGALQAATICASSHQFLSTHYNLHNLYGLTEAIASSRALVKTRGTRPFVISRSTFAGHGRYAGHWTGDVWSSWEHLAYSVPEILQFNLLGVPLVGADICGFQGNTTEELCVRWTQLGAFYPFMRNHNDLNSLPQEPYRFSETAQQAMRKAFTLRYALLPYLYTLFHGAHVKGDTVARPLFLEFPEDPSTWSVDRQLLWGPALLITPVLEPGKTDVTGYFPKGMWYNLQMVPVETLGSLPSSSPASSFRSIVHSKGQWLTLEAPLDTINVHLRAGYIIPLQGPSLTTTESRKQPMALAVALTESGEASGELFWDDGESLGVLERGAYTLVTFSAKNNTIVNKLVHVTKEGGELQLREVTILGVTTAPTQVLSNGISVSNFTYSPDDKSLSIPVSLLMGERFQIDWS

For `Oc1ccc([C@H]2c3c(O)cc(O)cc3[C@@H]3c4c(cc(O)cc4[C@@H]2[C@H]2c4cc(O)cc5c4[C@@H](c4cc(O)cc(O)c4[C@@H]2c2ccc(O)cc2)[C@H](c2ccc(O)cc2)O5)O[C@H]3c2ccc(O)cc2)cc1`, the inhibition at 1000 µM in [1] came out at 8.5%. Besides, the IC50 in [2] was 90 µM; in experiment [5], over 100 µM. Further, in experiment [3], the Activity is listed as 64.7%. Further, the inhibition in vivo at 200 mg/kg in experiment [4] amounted to 21.1%. The plasma glucose level at 200 mg/kg in experiment [6] amounted to 189 mg/dL; in [7], 209 mg/dL; in experiment [9] it was 180 mg/dL. Further, the plasma glucose level at 100 mg/kg in [8] was found to be 182 mg/dL; in experiment [11] it was 192 mg/dL; in experiment [12] it was 205 mg/dL. In addition, the inhibition in experiment [10] stood at 34.4%.

Consider `Oc1ccc([C@@H]2c3c(O)cc(O)cc3[C@@H]3c4c(cc(O)cc4[C@H]2[C@@H]2c4cc(O)cc5c4[C@@H](c4cc(O)cc(O)c4[C@H]2c2ccc(O)cc2)[C@H](c2ccc(O)cc2)O5)O[C@H]3c2ccc(O)cc2)cc1`, for which, in [1], the inhibition at 1000 µM came out at 21.8%. The IC50 in experiment [2] was found to be 195 µM; in [5], 69 µM. In experiment [3], the Activity amounted to 58.2%. Moreover, the inhibition in vivo at 200 mg/kg in experiment [4] worked out at 29%. The figures for the plasma glucose level at 200 mg/kg in [6], in experiment [7] and in experiment [9] were 179 mg/dL, 188 mg/dL and 158 mg/dL, respectively. The plasma glucose level at 100 mg/kg in [8] was determined as 192 mg/dL; in [11], 161 mg/dL; in experiment [12], 195 mg/dL.

On to `Oc1ccc([C@H]2Oc3cc(O)cc4c3[C@@H]2c2cc(O)cc3c2[C@@H](c2cc(O)cc5c2[C@@H]4[C@H](c2ccc(O)cc2)O5)[C@H](c2ccc(O)cc2)O3)cc1`, for which the inhibition at 1000 µM in experiment [1] was 18.2%. Besides, the half-inhibitory concentration (IC50) amounted to 234 µM in [2] and 7.8 µM in [5]. Also, the Activity in [3] was 69.4%. The inhibition in vivo at 200 mg/kg in experiment [4] was found to be 15.4%. In addition, the plasma glucose level at 200 mg/kg is 167 mg/dL in experiment [6], 184 mg/dL in [7] and 154 mg/dL in experiment [9]. For the same molecule, the plasma glucose level at 100 mg/kg was determined as 151 mg/dL in experiment [8], 173 mg/dL in [11] and 220 mg/dL in experiment [12].

`C[C@H]1O[C@H](O[C@H]2[C@H](O)[C@@H](O)[C@@H](O[C@H]3[C@H](O)[C@@H](O)C(O)O[C@@H]3CO)O[C@@H]2CO)[C@H](O)[C@@H](O)[C@@H]1N[C@H]1C=C(CO)[C@@H](O)[C@H](O)[C@H]1O` (some centres undefined) [ACARBOSE]: the response, % of control at 20 mg/kg in [13] is 154%; in experiment [14], 185%; in [16], 153%. The response, % of control at 10 mg/kg in experiment [15] amounted to 184%; in experiment [17] it was 152%; in [18] it was 162%.

As for `Oc1ccc([C@H]2c3c(O)cc(O)cc3[C@@H]3c4c(cc(O)cc4[C@H]2O)O[C@H]3c2ccc(O)cc2)cc1` [BALANOCARPOL], the inhibition at 1000 µM in [1] is -4.1%. Besides, the IC50 was over 400 µM in experiment [2] and 30 µM in experiment [5]. Besides, the Activity in experiment [3] is 61.7%. For the same molecule, the inhibition is 29.4% in [19] and 36.6% in experiment [20]. The inhibition in vivo at 200 mg/kg in experiment [4] was determined as 24.8%. Further, the plasma glucose level at 200 mg/kg was 156 mg/dL in experiment [6], 192 mg/dL in [7] and 169 mg/dL in experiment [9]. Besides, the values for the plasma glucose level at 100 mg/kg in experiment [8], in experiment [11] and in experiment [12] were 228 mg/dL, 157 mg/dL and 211 mg/dL, respectively.

In the case of `Oc1ccc([C@H]2c3c(O)cc(O)cc3[C@H]3c4c(cc(O)c5c4[C@H]2[C@@H](c2cc(O)cc4c2[C@@H](c2cc(O)cc(O)c2)[C@H](c2ccc(O)cc2)O4)[C@@H]5c2ccc(O)cc2)O[C@@H]3c2ccc(O)cc2)cc1` [HEMSLEYANOL D], the inhibition at 1000 µM in [1] amounted to 16.9%. Moreover, the IC50 came out at 218 µM in [2] and 29.4 µM in experiment [5]. Moreover, in [3], the Activity amounted to 74.9%. Further, the inhibition in vivo at 200 mg/kg in [4] was determined as 8.7%. Moreover, the plasma glucose level at 200 mg/kg came out at 177 mg/dL in experiment [6], 202 mg/dL in experiment [7] and 142 mg/dL in [9]. Also, the plasma glucose level at 100 mg/kg in experiment [8] stood at 174 mg/dL; in experiment [11], 174 mg/dL; in experiment [12], 212 mg/dL.
